Reference: ChEMBL document CHEMBL3091400, “The discovery of novel N-(2-pyrimidinylamino) benzamide derivatives as potent hedgehog signaling pathway inhibitors” (Bioorg Med Chem Lett, 2013)

Legend:
Sonic hedgehog protein = Sonic hedgehog protein (Mus musculus, UniProt Q62226); assay: Inhibition of SHH signaling pathway in mouse NIH3T3 cells measured after 48 hrs by Gli-luciferase reporter assay; format: cell-based
[1] = AUC in Sprague-Dawley rat at 1 mg/kg, iv; format: ADME, organism-based; parameters: dose 1 mg/kg, route intravenous; details: plasma
Rattus norvegicus [2] = assay: Volume of distribution at steady state in Sprague-Dawley rat at 5 mg/kg, po; format: ADME, organism-based; parameters: dose 5 mg/kg, route oral; details: in vivo
[3] = Cmax in Sprague-Dawley rat at 1 mg/kg, iv; format: ADME, organism-based; parameters: dose 1 mg/kg, route intravenous; details: in vivo
[4] = Oral bioavailability in Sprague-Dawley rat at 5 mg/kg; format: ADME, organism-based; details: in vivo
[5] = Mean residence time in Sprague-Dawley rat at 5 mg/kg, po; format: ADME, organism-based; parameters: dose 5 mg/kg, route oral; details: in vivo
Rattus norvegicus [6] = assay: Clearance in Sprague-Dawley rat at 1 mg/kg, iv; format: ADME, organism-based; parameters: dose 1 mg/kg, route intravenous; details: in vivo
Rattus norvegicus [7] = assay: Volume of distribution at steady state in Sprague-Dawley rat at 1 mg/kg, iv; format: ADME, organism-based; parameters: dose 1 mg/kg, route intravenous; details: in vivo
[8] = Half life in Sprague-Dawley rat at 1 mg/kg, iv; format: ADME, organism-based; parameters: dose 1 mg/kg, route intravenous; details: in vivo
[9] = AUC in Sprague-Dawley rat at 5 mg/kg, po; format: ADME, organism-based; parameters: dose 5 mg/kg, route oral; details: plasma
[10] = Cmax in Sprague-Dawley rat at 5 mg/kg, po; format: ADME, organism-based; parameters: dose 5 mg/kg, route oral; details: in vivo
[11] = Half life in Sprague-Dawley rat at 5 mg/kg, po; format: ADME, organism-based; parameters: dose 5 mg/kg, route oral; details: in vivo
[12] = Clearance in Sprague-Dawley rat at 5 mg/kg, po; format: ADME, organism-based; parameters: dose 5 mg/kg, route oral; details: in vivo
Rattus norvegicus [13] = assay: Mean residence time in Sprague-Dawley rat at 1 mg/kg, iv; format: ADME, organism-based; parameters: dose 1 mg/kg, route intravenous; details: in vivo

Chain of Sonic hedgehog protein (Q62226 25-198 limits assumed): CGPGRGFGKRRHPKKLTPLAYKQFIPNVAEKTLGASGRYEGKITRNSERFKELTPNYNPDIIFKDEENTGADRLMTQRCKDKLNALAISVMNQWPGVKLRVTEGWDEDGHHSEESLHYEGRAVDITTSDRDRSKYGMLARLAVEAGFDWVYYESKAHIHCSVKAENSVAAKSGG

IC50 (Sonic hedgehog protein)	SMILES	further results
5.3 nM	CCc1cnc(Nc2ccc(C(=O)Nc3c(C)cccc3C)cc2)nc1-c1ccc(OC(F)(F)F)cc1	–
42.1 nM	Cc1ccccc1C(=O)Nc1ccc(Nc2ncc(C)c(-c3ccc(OC(F)(F)F)cc3)n2)cc1	–
1 nM	Cc1ccccc1NC(=O)c1ccc(Nc2ncc(C)c(-c3ccc(OC(F)(F)F)cc3)n2)cc1	–
1.2 nM	Cc1ccc(-c2cnn(C)c2)cc1NC(=O)c1ccc(Nc2ncc(C)c(-c3ccc(OC(F)(F)F)cc3)n2)cc1	–
118 nM	Cc1cnc(Nc2ccc(C(=O)Nc3ccc(CN4CCN(C)CC4)cc3)cc2)nc1-c1ccc(OC(F)(F)F)cc1	–
354 nM	Cc1cnc(Nc2ccc(C(=O)Nc3ccccc3CN3CCN(C)CC3)cc2)nc1-c1ccc(OC(F)(F)F)cc1	–
73.1 nM	Cc1cnc(Nc2ccc(C(=O)NC(C)C)cc2)nc1-c1ccc(OC(F)(F)F)cc1	–
2.2 nM	Cc1cnc(Nc2ccc(C(=O)NC3CCCCC3)cc2)nc1-c1ccc(OC(F)(F)F)cc1	–
1.3 nM	Cc1cccc(C)c1NC(=O)c1ccc(Nc2ncc(C3CC3)c(-c3ccc(OC(F)(F)F)cc3)n2)cc1	–
125 nM	Cc1cnc(Nc2ccc3[nH]ncc3c2)nc1-c1ccc(OC(F)(F)F)cc1	–
> 500 nM	Cc1cnc(Nc2ccc(N3C[C@@H](C)O[C@@H](C)C3)nc2)nc1-c1ccc(OC(F)(F)F)cc1	–
1.3 nM	Cc1cnc(Nc2ccc(C(=O)Nc3c(C)cccc3C)cc2)nc1-c1ccc(OC(F)(F)F)cc1	AUC [1]: 915 ng·h/mL; Vdss (Rattus norvegicus [2]): 27.738 L/kg; Cmax [3]: 764 ng/mL; bioavailability [4]: 36%; MRT [5]: 5.1 h; CL (Rattus norvegicus [6]): 16.73 mL/min/kg; Vdss (Rattus norvegicus [7]): 14.898 L/kg; half-life [8]: 10.3 h; AUC [9]: 1700 ng·h/mL; Cmax [10]: 342 ng/mL; half-life [11]: 7 h; CL/F [12]: 46.6 mL/min/kg; MRT (Rattus norvegicus [13]): 4 h
5.5 nM	Cc1c(C(=O)Nc2ccc(N3C[C@@H](C)O[C@@H](C)C3)nc2)cccc1-c1ccc(OC(F)(F)F)cc1 [SONIDEGIB]	–

More lines, now with the values behind:

SMILES	IC50 (Sonic hedgehog protein)	further results
Cc1cnc(Nc2ccc(C(=O)Nc3c(C)cccc3C)cc2)nc1-c1ccncc1	0.54 nM	–
Cc1cccc(C)c1NC(=O)c1ccc(Nc2nc(C)c(C)c(-c3ccc(OC(F)(F)F)cc3)n2)cc1	1.6 nM	–
Cc1cccc(C)c1NC(=O)c1ccc(Nc2nccc(-c3ccc(OC(F)(F)F)cc3)n2)cc1	1.2 nM	–
Cc1cc(-c2ccc(OC(F)(F)F)cc2)nc(Nc2ccc(C(=O)Nc3c(C)cccc3C)cc2)n1	1.4 nM	–
Cc1cccc(C)c1NC(=O)c1ccc(Nc2ncc(F)c(-c3ccc(OC(F)(F)F)cc3)n2)cc1	1.6 nM	–
CCCc1cc(-c2ccc(OC(F)(F)F)cc2)nc(Nc2ccc(C(=O)Nc3c(C)cccc3C)cc2)n1	0.8 nM	–
Cc1cccc(C)c1NC(=O)c1ccc(Nc2cc(-c3ccc(OC(F)(F)F)cc3)ccn2)cc1	1.6 nM	–
Cc1cccc(C)c1NC(=O)c1ccc(Nc2cccc(-c3ccc(OC(F)(F)F)cc3)n2)cc1	23.4 nM	–
Cc1cccc(C)c1NC(=O)c1ccc(Nc2ncc(C(F)(F)F)c(-c3ccc(OC(F)(F)F)cc3)n2)cc1	0.53 nM	–
Cc1cnc(Nc2ccc(C(=O)Nc3c(C)cccc3C)cc2)nc1-c1cccnc1	> 500 nM	–
Cc1cnc(Nc2ccc(C(=O)Nc3c(C)cccc3C)cc2)nc1-c1cnn(C)c1	10.6 nM	–
Cc1cnc(Nc2ccc(C(=O)Nc3c(C)cccc3C)cc2)nc1-c1ccoc1	15.7 nM	–
Cc1cnc(Nc2ccc(C(=O)Nc3c(C)cccc3C)cc2)nc1C1CC1	32.8 nM	–
Cc1cnc(Nc2ccc(C(=O)Nc3c(C)cccc3C)cc2)nc1C	152 nM	–
Cc1cnc(Nc2ccc(C(=O)Nc3c(C)cccc3C)cc2)nc1Cc1ccccc1	34.3 nM	–
Cc1cnc(N(C)c2ccc(C(=O)Nc3c(C)cccc3C)cc2)nc1-c1ccc(OC(F)(F)F)cc1	2.7 nM	–
Cc1ccc(CN(C)Cc2ccccc2)cc1NC(=O)c1ccc(Nc2ncc(C)c(-c3ccc(OC(F)(F)F)cc3)n2)cc1	1.1 nM	–
Cc1ccc(CN(C)Cc2ccccc2)cc1NC(=O)c1ccc(Nc2ncc(C)c(C)n2)cc1	101 nM	–
Cc1cnc(Nc2ccc(C(=O)Nc3c(C)cccc3C)cc2)nc1-c1cccc(OC(F)(F)F)c1	1.2 nM	–
Cc1cnc(Nc2ccc(C(=O)Nc3c(C)cccc3C)cc2)nc1-c1ccccc1OC(F)(F)F	> 500 nM	–
Cc1cnc(Nc2ccc(C(=O)Nc3c(C)cccc3C)cc2)nc1-c1ccc(OC(F)(F)F)c(F)c1	159 nM	–
Cc1cnc(Nc2ccc(C(=O)Nc3c(C)cccc3C)cc2)nc1-c1ccc(C#N)cc1	2.8 nM	–
Cc1cnc(Nc2ccc(C(=O)Nc3c(C)cccc3C)cc2)nc1-c1ccc(N2CCOCC2)cc1	20.2 nM	–
Cc1cnc(Nc2ccc(C(=O)Nc3c(C)cccc3C)cc2)nc1-c1ccc(F)cc1	2.2 nM	–
Cc1ccc(-c2nc(Nc3ccc(C(=O)Nc4c(C)cccc4C)cc3)ncc2C)cc1	> 500 nM	–
Cc1cnc(Nc2ccc(C(=O)Nc3c(C)cccc3C)cc2)nc1-c1ccccc1	1.3 nM	–
CS(=O)(=O)c1ccc(C(=O)Nc2ccc(Cl)c(-c3ccccn3)c2)c(Cl)c1 [VISMODEGIB]	7.2 nM	–
